Structures can show the parent of a compound that is named as a salt. Where two headings read alike, the source gives them in different places.
Target: T1, His6-AspH315–758 (human aspartate/asparagine-β-hydroxylase, AspH) (Homo sapiens, UniProt Q12797)
T1 construct: N-Terminally His6-tagged human AspH315–758 (His6-AspH315–758) was produced in E. coli BL21 (DE3) cells; made in house; host or cells: E. coli BL21 (DE3), pET-28a(+) vector
T1 sequence (Q12797 315-758): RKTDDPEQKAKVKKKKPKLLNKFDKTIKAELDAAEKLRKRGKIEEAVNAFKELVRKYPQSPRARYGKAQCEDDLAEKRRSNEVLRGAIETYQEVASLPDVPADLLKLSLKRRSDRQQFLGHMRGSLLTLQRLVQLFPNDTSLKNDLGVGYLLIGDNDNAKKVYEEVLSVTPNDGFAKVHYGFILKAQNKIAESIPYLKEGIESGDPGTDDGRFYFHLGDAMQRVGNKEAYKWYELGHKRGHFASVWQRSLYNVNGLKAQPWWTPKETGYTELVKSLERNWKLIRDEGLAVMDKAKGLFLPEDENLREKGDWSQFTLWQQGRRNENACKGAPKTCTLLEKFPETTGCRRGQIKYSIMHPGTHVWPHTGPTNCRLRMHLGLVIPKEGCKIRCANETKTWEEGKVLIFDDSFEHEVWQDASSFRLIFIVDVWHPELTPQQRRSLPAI
Experiment: SPE-MS AspH inhibition assay (LOPAC screen at fixed 20 μM and IC50 dose-response), hydroxylation of cyclic peptide hFX-CP101–119
Format: biochemical

[1] = LOPAC compound at 20uM, plate 2, conversion of substrate peptide
[2] = LOPAC compound at 20uM, plate 2, normalised to DMSO and 2,4-PDCA controls
[3] = LOPAC compound at fixed 20 uM, plate 1, normalised to DMSO and 2,4-PDCA controls
[4] = LOPAC compound at fixed 20 uM, substrate conversion, plate 1
[5] = LOPAC compound at 20uM, plate 2, normalised to DMSO and 2,4-PDCA controls, read-out: Plate 2 (% inhibition)
[6] = LOPAC compound at 20uM, plate 3, conversion of substrate peptide
[7] = LOPAC Plate 4, compound at 20 uM, substrate conversion
[8] = LOPAC Plate 4, compound at 20 uM
[9] = LOPAC Plate 4, compound at 20 uM, read-out: % inhibition

## N[C@@H](Cc1ccc(F)cc1)C(=O)O [p-Fluoro-L-phenylalanine]
[1]
  Plate 2 (% conversion): 36.49%
[2]
  Plate 2 (% inhibition): -1.58%

## Nc1nc(OCc2ccccc2)c2nc[nH]c2n1 [O6-benzylguanine]
[3]
  Plate 1 (% inhibition): -1.55%
[4]
  Plate 1 (% conversion): 36.39%

## O=C1NCN(c2ccccc2)C12CCN(CCCC(c1ccc(F)cc1)c1ccc(F)cc1)CC2 [Fluspirilene]
[1]
  Plate 2 (% conversion): 58.99%
[5]
  inhibition at 20 µM: -68.8%

## O=C(O)c1cc(=O)c2c(Cl)cc(Cl)cc2[nH]1 [5,7-Dichlorokynurenic acid]
[1]
  Plate 2 (% conversion): 35.63%
[2]
  Plate 2 (% inhibition): 0.98%

## CCNC(=O)[C@H]1O[C@@H](n2cnc3c(N)ncnc32)[C@H](O)[C@@H]1O [5-N-Ethylcarboxamidoadenosine]
[1]
  Plate 2 (% conversion): 35.71%
[2]
  Plate 2 (% inhibition): 0.73%

## NC(N)=NCc1cccc(I)c1.NC(N)=NCc1cccc(I)c1.O=S(=O)(O)O [m-Iodobenzylguanidine hemisulfate]
[6]
  Plate 3 (% conversion): 36.94%

## CCCN1CCC[C@@H]2Cc3nc(N)ncc3C[C@H]21.Cl.Cl [Quinelorane dihydrochloride]
[7]
  % conversion: 33.91%

## C[C@]12C=CC(=O)C=C1CC[C@@H]1C2=CC[C@]2(C)[C@@H](C(=O)CN3CCN(c4cc(N5CCCC5)nc(N5CCCC5)n4)CC3)CC[C@@H]12.O=C(O)/C=C\C(=O)O [U-74389G maleate]
  % conversion: 25.11%
[8]
  % inhibition: 33.28%

## N#CC(C#N)=C(N)/C(C#N)=C/c1cc(O)c(O)c(O)c1 [Tyrphostin 51, reference compound]
AspH activity, fixed compound concentration 20 μM, initial LOPAC screen, 0.5%v/v DMSO, read-out: Inhibition at 20 µM [%]
  inhibition at 20 µM: 101%
[7]
  % conversion: 2.15%
[9]
  inhibition at 20 µM: 101%

## Cn1cnc([N+](=O)[O-])c1Sc1ncnc2nc[nH]c12 [Azathioprine]
[3]
  Plate 1 (% inhibition): -17.98%
[4]
  Plate 1 (% conversion): 41.91%

## O.O.O=C(Nc1ccc2c(c1)CCN(Cc1ncn[nH]1)C2)c1ccccc1-c1ccc(C(F)(F)F)cc1 [CP-346086 dihydrate]
[8]
  % inhibition: -27.35%
[7]
  % conversion: 45.80%

## NCCCS(=O)(=O)O.[Na] [3-Amino-1-propanesulfonic acid sodium]
[3]
  Plate 1 (% inhibition): -7.08%
[4]
  Plate 1 (% conversion): 38.25%

## CP(=O)(O)C1=CCNCC1 [TPMPA]
  % conversion: 27.88%

## O=C(Nc1cc(C(F)(F)F)cc(C(F)(F)F)c1)Nc1c(Br)cc(Br)cc1-c1nn[nH]n1 [NS5806]
[1]
  Plate 2 (% conversion): 28.28%
[2]
  Plate 2 (% inhibition): 22.93%

## N[C@@H](CS(=O)O)C(=O)O [L-Cysteinesulfinic Acid]
[3]
  Plate 1 (% inhibition): 8.76%
[4]
  Plate 1 (% conversion): 32.93%

## CCc1ccc2c(-c3cccc(Cl)c3)nc(=O)n(CC)c2n1 [YM 976]
[3]
  Plate 1 (% inhibition): -17.07%
[4]
  Plate 1 (% conversion): 41.61%

## NC(=O)c1ncn([C@@H]2O[C@H](CO)[C@@H](O)[C@H]2O)c1O [Mizoribine]
[6]
  Plate 3 (% conversion): 41.03%

## NC(Cc1ccc(Cl)cc1)C(=O)O (racemic) [(±)-p-Chlorophenylalanine]
[3]
  Plate 1 (% inhibition): -1.40%
[4]
  Plate 1 (% conversion): 36.34%

## CCCCC#Cc1nc(NC)c2ncn([C@@H]3O[C@H](CO)[C@@H](O)[C@H]3O)c2n1 [HEMADO]
[3]
  Plate 1 (% inhibition): 20.82%
[4]
  Plate 1 (% conversion): 28.88%

## NC[C@H](O)c1ccc(O)c(O)c1.O=C(O)C(O)C(O)C(=O)O (racemic) [(±)-Norepinephrine (+)bitartrate]
[3]
  Plate 1 (% inhibition): 92.57%
[4]
  Plate 1 (% conversion): 4.78%

## CCN(CC)CCNC(=O)c1cc(Cl)c(N)cc1OC.Cl [Metoclopramide hydrochloride]
[6]
  Plate 3 (% conversion): 35.20%

## Cl.Cl.Fc1ccc([C@@H]2CCNC[C@H]2COc2ccc3c(c2)OCO3)cc1.Fc1ccc([C@@H]2CCNC[C@H]2COc2ccc3c(c2)OCO3)cc1.O
[3]
  Plate 1 (% inhibition): -22.48%
[4]
  Plate 1 (% conversion): 43.42%

## COc1ccc(CCN(C)CCc2ccc(OC)c(OC)c2)cc1OC.Cl [YS-035 hydrochloride]
[8]
  % inhibition: -13.70%
[7]
  % conversion: 41.15%

## CC1=C(/C=C/C(C)=C/C=C/C(C)=C/C(=O)O)C(C)(C)CCC1 [Retinoic acid]
[7]
  % conversion: 30.58%
[9]
  inhibition at 20 µM: 17.2%

## CC(C)(C)NCC(O)COc1cccc2[nH]c(=O)[nH]c12.Cl (racemic) [(±)-CGP-12177A hydrochloride]
[1]
  Plate 2 (% conversion): 36.58%
[2]
  Plate 2 (% inhibition): -1.88%

## Clc1ccccc1C(c1ccccc1)(c1ccccc1)n1ccnc1 [Clotrimazole]
[3]
  Plate 1 (% inhibition): -28.43%
[4]
  Plate 1 (% conversion): 45.42%

## C=C(C)[C@H]1Cc2c(ccc3c2O[C@@H]2COc4cc(OC)c(OC)cc4[C@@H]2C3=O)O1 [Rotenone]
  % conversion: 46.53%

## CN1CCN(C2=Nc3cc(Cl)ccc3Nc3ccccc32)CC1 [Clozapine]
  Plate 1 (% conversion): 39.79%
[3]
  Plate 1 (% inhibition): -11.65%

## CN/C(=N/CCSCc1nc[nH]c1C)NC#N [Cimetidine]
[3]
  Plate 1 (% inhibition): -0.45%
[4]
  Plate 1 (% conversion): 36.02%

## BMS-193885
[7]
  % conversion: 32.96%

## (±)-Atenolol
[3]
  Plate 1 (% inhibition): 7.50%

## CCN(CC)CCOc1ccc(Nc2ncc3cc(-c4c(Cl)cccc4Cl)c(=O)n(C)c3n2)cc1 [PD-166285]
Plate 5 (Pfitzer), test compounds at fixed 20 μM
  Plate 5 (% inhibition): -31.63%
Plate 5 (Pfitzer), test compounds at fixed 20 μM, mean conversion DMSO 32.88
  Plate 5 (% conversion): 47.08%

## CCC1(c2ccc(N)cc2)CCC(=O)NC1=O (racemic) [(±)-p-Aminoglutethimide]
  Plate 1 (% conversion): 34.85%
  Plate 1 (% inhibition): 3.03%

## COc1ccc2c(c1OC)C(=O)O[C@@H]2[C@H]1c2c(cc3c(c2OC)OCO3)CCN1C.Cl [Noscapine hydrchloride]
[6]
  Plate 3 (% conversion): 38.14%

## NCC(CC(=O)O)c1ccc(Cl)cc1 (racemic) [(±)-Baclofen]
[3]
  Plate 1 (% inhibition): -1.99%
[4]
  Plate 1 (% conversion): 36.54%

## CC(C)C[C@H]1C(=O)N2CCC[C@H]2[C@]2(O)O[C@](NC(=O)[C@@H]3C=C4c5cccc6[nH]c(Br)c(c56)C[C@H]4N(C)C3)(C(C)C)C(=O)N12.CS(=O)(=O)O [(+)-Bromocriptine methanesulfonate]
  Plate 1 (% conversion): 29.77%
  Plate 1 (% inhibition): 18.18%

## C[N+](C)(C)CCOP(=O)([O-])OP(=O)([O-])OC[C@H]1O[C@@H](n2ccc(N)nc2=O)[C@H](O)[C@@H]1O.[Na+]
[1]
  Plate 2 (% conversion): 36.80%
[2]
  Plate 2 (% inhibition): -2.53%

## Nc1ccn([C@H]2CC[C@@H](CO)O2)c(=O)n1 [2,3-dideoxycytidine]
[1]
  Plate 2 (% conversion): 37.68%
[2]
  Plate 2 (% inhibition): -5.15%

## Cl.N=C(N)c1ccc(CS(=O)(=O)F)cc1
  Plate 3 (% conversion): 34.27%

## N#CCCN.N#CCCN.O=C(O)/C=C/C(=O)O [3-Aminopropionitrile fumarate]
[3]
  Plate 1 (% inhibition): 48.97%
[4]
  Plate 1 (% conversion): 19.43%

## c1ccc2c(CC3=NCCN3)cccc2c1 [Naphazoline hydrochloride]
[6]
  Plate 3 (% conversion): 38.59%

## CC(=O)NBr [N-Bromoacetamide]
[3]
  Plate 1 (% inhibition): 71.66%
[4]
  Plate 1 (% conversion): 11.81%

## COCc1nc2c([nH]1)c(=O)n(C)c(=O)n2CC(C)C
[6]
  Plate 3 (% conversion): 35.26%

## Nc1nc(Nc2ccccc2)nc2c1ncn2[C@@H]1O[C@H](CO)[C@@H](O)[C@H]1O [2-Phenylaminoadenosine]
[8]
  % inhibition: -10.62%
[7]
  % conversion: 40.09%

## O=C(O)COCCN1CCN(C(c2ccccc2)c2ccc(Cl)cc2)CC1 (stereo not shown) [Cetirizine dihydrochloride]
[5]
  inhibition at 20 µM: -5.77%

## CC(C)c1ccc(CC(=O)N2CCC[C@@H](c3cccc(OC(C)(C)C(=O)O)c3)C2)cc1 [CP-775146]
  Plate 5 (% conversion): 34.51%
  Plate 5 (% inhibition): 5.31%

## CC(NC(C)(C)C)C(=O)c1cccc(Cl)c1 (stereo not shown) [Bupropion hydrochloride]
  Plate 1 (% conversion): 38.01%
  Plate 1 (% inhibition): -6.38%
